Reference: patent US8828988B2 (Tetraphase Pharmaceuticals, Inc., priority 2009, dated 2014)
Converted amounts (≈) assume the structure as drawn. Where two headings read alike, the source gives them in different places.

What was measured:
[1] = system: Streptococcus pneumoniae SP106, ATCC 49619; assay: MIC assay, SP106; type: cell-based; conditions: ATCC49619, Table 8, read-out: MIC S. pneumoniae ATCC 49619
[2] = system: tet(M) and tet(S) strains of E. faecalis; assay: MIC, CLSI methodology, recent clinical isolates (Example 21); type: cell-based; conditions: Enterococcus faecalis, read-out: MIC against tet(M) and tet(S) strains of E. faecalis
Description: (§1) The assays were run as follows.
(§2) The antibacterial activities of Compounds MIC values were determined according to CLSI methodology. Recent clinical isolates were obtained from Eurofins-Medinet. Antibiotics were obtained from standard commercial sources.

[3] = system: tet(K) strains of S. aureus; assay: as above; type: cell-based; conditions: Staphylococcus aureus, read-out: MIC against tet(K) strains of S. aureus
Description: as §1, §2

[4] = system: tet(M) strains of S. aureus; assay: as above; type: cell-based; conditions: Staphylococcus aureus, read-out: MIC against tet(M) strains of S. aureus
Description: as §1, §2

[5] = system: tet(M) strains of S. pneumoniae; assay: as above; type: cell-based; conditions: Streptococcus pneumoniae, read-out: MIC against tet(M) strains of S. pneumoniae
Description: as §1, §2

[6] = system: E. coli DH10B(pBAD-tetK), expressing tet(K); assay: MIC against recombinant E. coli expressing tet(K); type: cell-based; conditions: for MIC: Escherichia coli
From the text: (§3) Constructs were transformed into E. coli DH10B for expression. Recombinant strains were pre-induced under optimized conditions with L-arabinose prior to use as inocula in CLSI standardized MIC assays.

[7] = system: E. coli S30 extract system, coupled in vitro transcription/translation, firefly luciferase readout; assay: In vitro transcription/translation (TnT) assay; type: biochemical
[8] = system: Staphylococcus aureus SA161, HA-MRSA, tetracycline-resistant, tet(M); assay: MIC assay, SA161; type: cell-based; conditions: Table 8, read-out: MIC S. aureus MRSA, tetM
[9] = system: Enterococcus faecalis EF159, tetracycline-resistant, tet(M); assay: MIC assay, EF159; type: cell-based; conditions: Table 8, read-out: MIC E. faecalis tetM
[10] = system: Escherichia coli EC107, ATCC 25922; assay: MIC assay, EC107; type: cell-based; conditions: ATCC25922, Table 8, read-out: MIC E. coli ATCC 25922
[11] = system: Staphylococcus aureus SA101, ATCC 29213, MSSA; assay: MIC assay, SA101; type: cell-based; conditions: Table 8, read-out: MIC S. aureus ATCC 29213
[12] = system: Escherichia coli EC155, tetracycline-resistant, tet(A); assay: MIC assay, EC155; type: cell-based; conditions: Table 8, read-out: MIC E. coli tetA
[13] = system: E. coli DH10B(pBAD-tetM), expressing tet(M); assay: MIC against recombinant E. coli expressing tet(M); type: cell-based; conditions: for MIC: Escherichia coli
From the text: as §3

[14] = system: S. pneumoniae clinical isolates; assay: MIC50, MIC90 and MIC range, panel of clinical isolates (Example 20); type: cell-based; conditions: 19 isolates, in µg/mL
Description: as §1
(§4) Both values, as well as the MIC range (the lowest and highest MIC value observed for a collection of organisms), were determined for the isolates listed in Table 3.

[15] = system: S. aureus clinical isolates; assay: as above; type: cell-based; conditions: MRSA, 30 isolates; in µg/mL
Description: as §1, §4

[16] = system: E. faecalis clinical isolates; assay: as above; type: cell-based; conditions: 24 isolates, in µg/mL
Description: as §1, §4

[17] = system: Streptococcus pneumoniae SP160, tetracycline-resistant, tet(M); assay: MIC assay, SP160; type: cell-based; conditions: Table 8, read-out: MIC S. pneumoniae tetM
[18] = system: Staphylococcus aureus SA158, tetracycline-resistant tet(K); assay: MIC assay, SA158; type: cell-based; conditions: Table 8, read-out: MIC S. aureus tetK
[19] = system: Enterococcus faecalis EF103, ATCC 29212; assay: MIC assay, EF103; type: cell-based; conditions: Enterococcus faecalis, ATCC29212; Table 8; read-out: MIC E. faecalis ATCC 29212

With CN(C)CC(C)(C)CNc1nc(F)c2c(c1O)C(=O)C1=C(O)[C@]3(O)C(=O)C(C(N)=O)=C(O)[C@@H](N(C)C)[C@@H]3C[C@@H]1C2 [Compound 133] the MIC [1] was 0.5 µg/mL (≈ 0.89 µM), the MIC [2] was ≤ 4 µg/mL and the MIC [3] was ≤ 1 µg/mL. For the same compound, the MIC [4] was ≤ 8 µg/mL, the MIC [5] was ≤ 0.25 µg/mL and the MIC ([6]; read-out: MIC, TetK Induced) was 1 µg/mL. For the same compound, the MIC ([6]; read-out: MIC, Uninduced) was 2 µg/mL, the “MIC ratio, TetK induced to uninduced” value ([6]; ratio of TetK induced to uninduced MIC) was 0.5 and the “Effect of expression of (tet)K on activity” value ([6]; result in words) was “unaffected”. The “TnT IC50” value [7] was 0.56 µg/mL, the “IC50, in vitro transcription/translation system” value ([7]; E. coli S30 extract, luciferase readout) was 0.6 µg/mL (≈ 1.07 µM) and the MIC [8] was 2 µg/mL (≈ 3.56 µM). The MIC [9] was 2 µg/mL (≈ 3.56 µM), the MIC [10] was 1 µg/mL (≈ 1.78 µM) and the MIC [11] was 1 µg/mL (≈ 1.78 µM). It also gave an MIC [12] of 8 µg/mL (≈ 14.2 µM), an MIC ([13]; read-out: MIC, TetM induced) of 2 µg/mL and an MIC ([13]; read-out: MIC, Uninduced) of 0.5 µg/mL. The “Ratio (TetM induced / Uninduced)” value ([13]; ratio of MICs) was 4, the “Effect of expression of (tet)M on activity” value ([13]; result in words) was “minimally affected” and the “MIC Range” value [14] was “<=0.016-0.25”. For the same compound, the “MIC Range” value [15] was 0.5-8, the “MIC Range” value [16] was 0.25-4 and the MIC [17] was 1 µg/mL (≈ 1.78 µM). It also gave an MIC [18] of 0.5 µg/mL (≈ 0.89 µM) and an MIC [19] of 0.5 µg/mL (≈ 0.89 µM).
